Measurements published in patent publication US4727090A, “Process for preparing and therapeutical applications of the 2,4,6-triiodophenol” (Bislak, S.A., priority 1983, dated 1988).

Tested on: waste (minute volume)
Experiment: Waste / minute volume by echo-Doppler in cardiovascular patients (peripheral hyperemia)
Format: in vivo
Conditions: 30 mg/day intramuscular
Text: The technology used to show the hemodynamic changes was of the non-invasivetype, as in this way experiments can be repeated and are completely innoxious for the patient. Of all the non-invasive methods of diagnosis we selected the most reliable of actual conditions, which is the method of ultrasounds (echo and Doppler's effects). The bidimensional echocardiography in real time, combined with pulsatile Doppler and the bidimensional vascular echography combined with pulsatile Doppler hemodynamic, are actually the two most reliable non-invasive techniques for the study of the anatomic changes and macroscopic hemodynamics with regard to the cardiovascular apparatus. That's why we used for the study of the clinical effects of the 2,4,6-triiodophenol an echo-Doppler trade mark ATL (Mark V), being the transmission frequency of 3 MHz, as well as a continuous Doppler trade mark SONICAID of 4 and 8 MHz.
Patients were divided in four statistically acceptable groups (50 in each group), comparing the results obtained with this medicament before, during and after the treatment.
Methodologically there are practiced echographical cuts in real time of the heart, big vases, supra-aortic trunks, abdominal aorta, portal and caval systems and iliac and femoral arteries, obtaining fluxmetric samples Doppler in all the mentioned cardiac cavities and blood vessels to study the sense of the flow, outflow (stream) or volume of flow and the hemodynamic features of the sanguineous flow.
Hereunder we expose the clinical results obtained after the administration during three months of the 2,4,6-triiodophenol in 200 cardiovascular patients.
Sick persons were divided in 4 groups; (1) 50 patients with cerebral vascular insufficiency, (2) 50 patients with coronary insufficiency, (3) 50 patients with hepatic insufficiency and (4) 50 patients with peripheral vascular insufficiency of the lower extremities. All these persons received an intramuscular administration, a dosage of 30 mg/day of 2,4,6-triiodophenol, carrying out controls at the first, second and third month of all angiohemodynamic parameters, supposing a total of 600 controls (150 per each group after the three months).

With `Oc1c(I)cc(I)cc1I` [2,4,6-triiodophenol] the “Cardiac waste, variation (Δ %)” value (1st month) was “+5%”, the “Cerebral minute volume, variation (Δ %)” value (1st month) was “+23%” and the “Hepatic minute volume (venous), variation (Δ %)” value (shortened to “Hepatic minute volume … (Δ %)”) (1st month) was “+24%”. For the same compound, the “Lower extremity minute volume, variation (Δ %)” value (1st month) was “+10%”, the “Cardiac waste, variation (Δ %)” value (2nd month) was “+6%” and the “Cerebral minute volume, variation (Δ %)” value (2nd month) was “+27,6%”. For the same compound, the “Hepatic minute volume … (Δ %)” value (2nd month) was “+16%”, the “Lower extremity minute volume, variation (Δ %)” value (2nd month) was “+24%” and the “Cardiac waste, variation (Δ %)” value (3rd month) was “+11%”. For the same compound, the “Cerebral minute volume, variation (Δ %)” value (3rd month) was “+34%”, the “Hepatic minute volume … (Δ %)” value (3rd month) was “+23%” and the “Lower extremity minute volume, variation (Δ %)” value (3rd month) was “+30%”. For the same compound, the “Increase of volume of flow, cerebral” value (conclusions, three months) was 34%, the “Increase of volume of flow, hepatic” value (conclusions, three months) was 23% and the “Increase of volume of flow, lower member” value (conclusions, three months) was 30%. For the same compound, the “Increase of volume of flow, systemic circulatory minute” value (conclusions, three months) was 11%.
